Test results from paper PMC8241654 (Cell, 2021).

Test system: HLA class I
Format: cell-based, Human

MIAQYTSAL [B7 COVID 16] was tested, and the “HLA class I stabilization across alleles (in words)” value was “can stabilize a number of HLA class I alleles”.
